The record followed here is patent US20240376084A1, “INHIBITORS OF ALPHA-HEMOLYSIN OF STAPHYLOCOCCUS AUREUS” (Helmholtz-Zentrum Fur Infektionsforschung GmbH, priority 2021, published 2024).

The target of this experiment is hemolysin alpha from Staphylococcus aureus (Staphylococcus aureus, UniProt P09616). Briefly: cell-based.
Sequence of hemolysin alpha from Staphylococcus aureus (P09616 27-319 limits assumed): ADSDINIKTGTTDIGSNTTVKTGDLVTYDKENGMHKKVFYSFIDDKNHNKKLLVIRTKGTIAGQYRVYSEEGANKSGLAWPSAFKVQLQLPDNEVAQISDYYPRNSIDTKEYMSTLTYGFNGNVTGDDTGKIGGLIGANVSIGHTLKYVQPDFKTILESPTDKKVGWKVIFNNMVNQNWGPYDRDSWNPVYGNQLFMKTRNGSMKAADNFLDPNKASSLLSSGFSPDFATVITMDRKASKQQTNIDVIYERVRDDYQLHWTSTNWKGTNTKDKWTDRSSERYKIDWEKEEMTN

Turning to `Cc1cc(NS(=O)(=O)c2cc3[nH]c(=O)c(=O)[nH]c3cc2Cl)cc(C)c1-c1ccsc1` [Compound 80, 7-chloro-N-(3,5-dimethyl-4-(thiophen-3-yl)phenyl)-2,3-dioxo-1,2,3,4-tetrahydroquinoxaline-6-sulfonamide], the IC50 (as a rule, the point on the concentration scale where inhibition reaches its midpoint) lay in the range of 0.1 to 1 µM.
The figure for `O=c1[nH]c2cc(F)c(S(=O)(=O)Nc3ccc4ccccc4c3)cc2[nH]c1=O` [Compound 95, 7-fluoro-N-(naphthalen-2-yl)-2,3-dioxo-1,2,3,4-tetrahydroquinoxaline-6-sulfonamide] is 0.1 to 1 µM; for `O=c1[nH]c2cc(Br)c(S(=O)(=O)Nc3ccc(C4CC4)cc3)cc2[nH]c1=O` [Compound 96, 7-bromo-N-(4-cyclopropylphenyl)-2,3-dioxo-1,2,3,4-tetrahydroquinoxaline-6-sulfonamide] it is 0.1 to 1 µM.
On to `CCOc1ccc(NS(=O)(=O)c2cc3[nH]c(=O)c(=O)[nH]c3cc2C)cc1` [Compound 111, N-(4-ethoxyphenyl)-7-methyl-2,3-dioxo-1,2,3,4-tetrahydroquinoxaline-6-sulfonamide], for which the half-inhibitory concentration (IC50) fell in the range of 0.1 to 1 µM.
The figure for `Cc1ccc(-c2ccc(NS(=O)(=O)c3cc4[nH]c(=O)c(=O)[nH]c4cc3C)cc2)cc1` [Compound 115, 7-methyl-N-(4′-methyl-[1,1′-biphenyl]-4-yl)-2,3-dioxo-1,2,3,4-tetrahydroquinoxaline-6-sulfonamide] is 0.1 to 1 µM; for `Cc1cc2[nH]c(=O)c(=O)[nH]c2cc1S(=O)(=O)Nc1ccc(-c2c(C)cccc2C)cc1` [Compound 116, N-(2′,6′-dimethyl-[1,1′-biphenyl]-4-yl)-7-methyl-2,3-dioxo-1,2,3,4-tetrahydroquinoxaline-6-sulfonamide] it is 0.1 to 1 µM.
For `Cc1ccc(-c2ccc(NS(=O)(=O)c3cc4[nH]c(=O)c(=O)[nH]c4cc3C)cc2)c(C)c1` [Compound 118, N-(2′,4′-dimethyl-[1,1′-biphenyl]-4-yl)-7-methyl-2,3-dioxo-1,2,3,4-tetrahydroquinoxaline-6-sulfonamide] the value was 0.1 to 1 µM; for `Cc1cc2[nH]c(=O)c(=O)[nH]c2cc1S(=O)(=O)Nc1ccc(C#N)cc1` [Compound 129, N-(4-cyanophenyl)-7-methyl-2,3-dioxo-1,2,3,4-tetrahydroquinoxaline-6-sulfonamide], 1 to 3.5 µM.
For `Cc1cc2[nH]c(=O)c(=O)[nH]c2cc1S(=O)(=O)Nc1cc(C)c(-c2ccncc2)c(C)c1` [Compound 131, N-(3,5-dimethyl-4-(pyridin-4-yl)phenyl)-7-methyl-2,3-dioxo-1,2,3,4-tetrahydroquinoxaline-6-sulfonamide] the value was 0.1 to 1 µM; for `Cc1cc2[nH]c(=O)c(=O)[nH]c2cc1S(=O)(=O)Nc1ccc(N(C)C)cc1` [Compound 133, N-(4-(dimethylamino)phenyl)-7-methyl-2,3-dioxo-1,2,3,4-tetrahydroquinoxaline-6-sulfonamide], 0.1 to 1 µM.
`Cc1cc(NS(=O)(=O)c2cc3[nH]c(=O)c(=O)[nH]c3cc2Cl)cc(C)c1Br` [Compound 145, N-(4-bromo-3,5-dimethylphenyl)-7-chloro-2,3-dioxo-1,2,3,4-tetrahydroquinoxaline-6-sulfonamide]: the IC50 fell in the range of 0.1 to 1 µM.
The figure for `O=c1[nH]c2cc(F)c(S(=O)(=O)Nc3ccc(Br)c(Cl)c3)cc2[nH]c1=O` [Compound 148, N-(4-bromo-3-chlorophenyl)-7-fluoro-2,3-dioxo-1,2,3,4-tetrahydroquinoxaline-6-sulfonamide] is 0.1 to 1 µM; for `CCCc1ccc(NS(=O)(=O)c2cc3[nH]c(=O)c(=O)[nH]c3cc2C(C)C)cc1` [Compound 151, 7-isopropyl-2,3-dioxo-N-(4-propylphenyl)-1,2,3,4-tetrahydroquinoxaline-6-sulfonamide] it is 0.1 to 1 µM.
The figure for `CC(C)c1cc2[nH]c(=O)c(=O)[nH]c2cc1S(=O)(=O)Nc1ccc(C2CC2)cc1` [Compound 153, N-(4-cyclopropylphenyl)-7-isopropyl-2,3-dioxo-1,2,3,4-tetrahydroquinoxaline-6-sulfonamide] is 0.1 to 1 µM; for `CC(C)c1cc2[nH]c(=O)c(=O)[nH]c2cc1S(=O)(=O)Nc1ccc(Br)c(Cl)c1` [Compound 154, N-(4-bromo-3-chlorophenyl)-7-isopropyl-2,3-dioxo-1,2,3,4-tetrahydroquinoxaline-6-sulfonamide] it is 0.1 to 1 µM.
The figure for `Cc1cc(NS(=O)(=O)c2cc3[nH]c(=O)c(=O)[nH]c3cc2Cl)ccc1-c1ccncc1` [Compound 155, 7-chloro-N-(3-methyl-4-(pyridin-4-yl)phenyl)-2,3-dioxo-1,2,3,4-tetrahydroquinoxaline-6-sulfonamide] is 0.1 to 1 µM; for `Cc1cc(NS(=O)(=O)c2cc3[nH]c(=O)c(=O)[nH]c3cc2Cl)cc(C)c1-c1ccoc1` [Compound 156, 7-chloro-N-(4-(furan-3-yl)-3,5-dimethylphenyl)-2,3-dioxo-1,2,3,4-tetrahydroquinoxaline-6-sulfonamide] it is 0.1 to 1 µM.
For `Cc1cc(NS(=O)(=O)c2cc3[nH]c(=O)c(=O)[nH]c3cc2Cl)cc(C)c1-c1ccncc1` [Compound 157, 7-chloro-N-(3,5-dimethyl-4-(pyridin-4-yl)phenyl)-2,3-dioxo-1,2,3,4-tetrahydroquinoxaline-6-sulfonamide], the IC50 is 1 to 3.5 µM.
The figure for `Cc1ccc(-c2ccc(NS(=O)(=O)c3cc4[nH]c(=O)c(=O)[nH]c4cc3F)cc2Cl)o1` [Compound 158, N-(3-chloro-4-(5-methylfuran-2-yl)phenyl)-7-fluoro-2,3-dioxo-1,2,3,4-tetrahydroquinoxaline-6-sulfonamide] is 0.1 to 1 µM; for `CC(C)c1cc2[nH]c(=O)c(=O)[nH]c2cc1S(=O)(=O)Nc1ccc(-c2ccncc2)c(Cl)c1` [Compound 159, N-(3-chloro-4-(pyridin-4-yl)phenyl)-7-isopropyl-2,3-dioxo-1,2,3,4-tetrahydroquinoxaline-6-sulfonamide] it is 1 to 3.5 µM.
For `O=c1[nH]c2cc(F)c(S(=O)(=O)Nc3ccc(C(F)(F)F)cc3)cc2[nH]c1=O` [Compound 160, 7-fluoro-2,3-dioxo-N-(4-(trifluoromethyl)phenyl)-1,2,3,4-tetrahydroquinoxaline-6-sulfonamide] the value was 1 to 3.5 µM; for `CC(C)c1cc2[nH]c(=O)c(=O)[nH]c2cc1S(=O)(=O)Nc1ccc(-c2ccoc2)c(Cl)c1` [Compound 161, N-(3-chloro-4-(furan-3-yl)phenyl)-7-isopropyl-2,3-dioxo-1,2,3,4-tetrahydroquinoxaline-6-sulfonamide], 0.1 to 1 µM; for `Cc1cc(NS(=O)(=O)c2cc3[nH]c(=O)c(=O)[nH]c3cc2F)cc(C)c1Br` [Compound 162, N-(4-bromo-3,5-dimethylphenyl)-7-fluoro-2,3-dioxo-1,2,3,4-tetrahydroquinoxaline-6-sulfonamide], 0.1 to 1 µM.
For `Cc1cc(NS(=O)(=O)c2cc3[nH]c(=O)c(=O)[nH]c3cc2F)ccc1Br` [Compound 163, N-(4-bromo-3-methylphenyl)-7-fluoro-2,3-dioxo-1,2,3,4-tetrahydroquinoxaline-6-sulfonamide] the value was 0.1 to 1 µM; for `O=c1[nH]c2cc(F)c(S(=O)(=O)Nc3ccc4c(c3)CCCC4)cc2[nH]c1=O` [Compound 164, 7-fluoro-2,3-dioxo-N-(5,6,7,8-tetrahydronaphthalen-2-yl)-1,2,3,4-tetrahydroquinoxaline-6-sulfonamide], 0.1 to 1 µM.
In turn, `O=c1[nH]c2cc(F)c(S(=O)(=O)Nc3ccc(C(F)(F)F)c(Cl)c3)cc2[nH]c1=O` [Compound 165, N-(3-chloro-4-(trifluoromethyl)phenyl)-7-fluoro-2,3-dioxo-1,2,3,4-tetrahydroquinoxaline-6-sulfonamide] came in with an IC50 of 1 to 3.5 µM.
For `Cc1cc(NS(=O)(=O)c2cc3[nH]c(=O)c(=O)[nH]c3cc2F)cc(C)c1-c1ccoc1` [Compound 166, 7-fluoro-N-(4-(furan-3-yl)-3,5-dimethylphenyl)-2,3-dioxo-1,2,3,4-tetrahydroquinoxaline-6-sulfonamide] the value was 0.1 to 1 µM; for `Cc1cc(NS(=O)(=O)c2cc3[nH]c(=O)c(=O)[nH]c3cc2F)cc(C)c1-c1ccncc1` [Compound 167, N-(3,5-dimethyl-4-(pyridin-4-yl)phenyl)-7-fluoro-2,3-dioxo-1,2,3,4-tetrahydroquinoxaline-6-sulfonamide], 1 to 3.5 µM.
For `Cc1cc(NS(=O)(=O)c2cc3[nH]c(=O)c(=O)[nH]c3cc2F)ccc1-c1ccncc1` [Compound 169, 7-fluoro-N-(3-methyl-4-(pyridin-4-yl)phenyl)-2,3-dioxo-1,2,3,4-tetrahydroquinoxaline-6-sulfonamide], the IC50 fell in the range of 0.1 to 1 µM.
For `CC(C)c1cc2[nH]c(=O)c(=O)[nH]c2cc1S(=O)(=O)Nc1ccc(-c2ccccc2)c(Cl)c1` [Compound 176, N-(2-chloro-[1,1′-biphenyl]-4-yl)-7-isopropyl-2,3-dioxo-1,2,3,4-tetrahydroquinoxaline-6-sulfonamide] the value was 0.1 to 1 µM.
For `CC(C)c1cc2[nH]c(=O)c(=O)[nH]c2cc1S(=O)(=O)Nc1ccc(-c2cccc(Cl)c2)c(Cl)c1` [Compound 178, N-(2,3′-dichloro-[1,1′-biphenyl]-4-yl)-7-isopropyl-2,3-dioxo-1,2,3,4-tetrahydroquinoxaline-6-sulfonamide] the value was 0.1 to 1 µM; for `Cc1ccc(NS(=O)(=O)c2cc3[nH]c(=O)c(=O)[nH]c3cc2C)cc1` [Compound 179, 7-methyl-2,3-dioxo-N-(p-tolyl)-1,2,3,4-tetrahydroquinoxaline-6-sulfonamide], 0.1 to 1 µM; for `Cc1cc2[nH]c(=O)c(=O)[nH]c2cc1S(=O)(=O)Nc1ccc(N2CCOCC2)cc1` [Compound 180, 7-methyl-N-(4-morpholinophenyl)-2,3-dioxo-1,2,3,4-tetrahydroquinoxaline-6-sulfonamide], 1 to 3.5 µM.
The figure for `Cc1ccc(NS(=O)(=O)c2cc3[nH]c(=O)c(=O)[nH]c3cc2C)cc1Cl` [Compound 181, N-(3-chloro-4-methylphenyl)-7-methyl-2,3-dioxo-1,2,3,4-tetrahydroquinoxaline-6-sulfonamide] is 1 to 3.5 µM; for `Cc1cc2[nH]c(=O)c(=O)[nH]c2cc1S(=O)(=O)Nc1ccc(F)c(Cl)c1` [Compound 183, N-(3-chloro-4-fluorophenyl)-7-methyl-2,3-dioxo-1,2,3,4-tetrahydroquinoxaline-6-sulfonamide] it is 1 to 3.5 µM.
